From ChEMBL document CHEMBL1148081, “Corticatic acids A-C, antifungal acetylenic acids from the marine sponge, Petrosia corticata” (J Nat Prod, 1994)
Activity calls are given as the source filed them. The rule behind the calls is not given here.

Tested on: Umbelopsis ramanniana
Experiment: Antimicrobial activity against Mortierella ramanniana
Assay type: functional, organism-based

SMILES	Activity
C#CC(O)/C=C/CCCCCC#CC/C=C\CCCCCCCCCCC/C=C/C#CC(=O)O (configuration not stated)	Active
C#CC(O)/C=C/CCCCCC#CC/C=C\CCCCCCCCCCC/C=C\C#CC(=O)O (configuration not stated)	Active
